This assay deals with T1, Kv7.2 (Homo sapiens, UniProt O43526).
T1 construct: expressed in transfected cells
The assay can be described thus: Activation of Kv7.2 (in vitro assay, concentration response curve). The assay is classed as cell-based. The conditions noted are these: for Emax: Kv7.2 activation max %; for EC50: activation of Kv7.2. Summed up:
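Agonist activity was measured in vitro across a range of compound concentrations and plotted as a sigmoidal concentration–response curve. EC50 is the concentration giving 50% of that compound's own maximal response (Emax).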

Here are results for 26 compounds from patent US20250074901A1, “NOVEL HETEROARYL COMPOUNDS” (ICAGEN, LLC, priority 2021, published 2025).

Each structure is given as a SMILES string.

Turning to `O=C(NCc1ccnc(OC(F)F)c1)NCC1CC(F)C1` (stereo not shown) [Example 89, 1-[[2-(difluoromethoxy)pyridin-4-yl]methyl]-3-[(3-fluorocyclobutyl)methyl]urea], the Emax came to 46% and the EC50 is 1040 nM.
The corresponding values for `O=C(NCc1ccnc(OC(F)F)c1)NC1CCC(F)(F)CC1` [Example 90, 1-(4,4-difluorocyclohexyl)-3-[[2-(difluoromethoxy)pyridin-4-yl]methyl]urea] are 62% and 180 nM.
The corresponding values for `O=C(NC(CO)c1ccnc(OC(F)F)c1)N[C@H]1C[C@H](C(F)(F)F)C1` (stereo partly shown) [Example 91, 1-[1-[2-(difluoromethoxy)pyridin-4-yl]-2-hydroxyethyl]-3-[(1r,3r)-3-(trifluoromethyl)cyclobutyl]urea] are 82% and 1260 nM.
The corresponding values for `O=C(Nc1cccc(Cl)c1)NC(CO)c1ccnc(OCC(F)(F)F)c1` (stereo not shown) [Example 92, 1-(3-chlorophenyl)-3-[2-hydroxy-1-[2-(2,2,2-trifluoroethoxy)pyridin-4-yl]ethyl]urea] are 64% and 180 nM.
Compound `O=C(NCc1ccnc(OC(F)F)c1)NC1CCC(F)(F)C1` (stereo not shown) [Example 93, 1-(3,3-difluorocyclopentyl)-3-[[2-(difluoromethoxy)pyridin-4-yl]methyl]urea] returned an Emax of 56% and an EC50 of 450 nM.
`CC(C)(C)C(O)CNC(=O)NCc1ccnc(OC(F)F)c1` (stereo not shown) [Example 95, 1-[[2-(difluoromethoxy)pyridin-4-yl]methyl]-3-(2-hydroxy-3,3-dimethylbutyl)urea]: the Emax is 43% and the EC50 turned out to be 1160 nM.
The corresponding values for `O=C(NCc1ccnc(OC(F)F)c1)Nc1nccc(Cl)n1` [Example 96, 1-(4-chloropyrimidin-2-yl)-3-[[2-(difluoromethoxy)pyridin-4-yl]methyl]urea] are 85% and 7220 nM.
The like results for `O=C(Nc1cccc(Cl)c1)NC(CO)c1ccnc(OC(F)F)c1` (stereo not shown) [Example 97, 1-(3-chlorophenyl)-3-[1-[2-(difluoromethoxy)pyridin-4-yl]-2-hydroxyethyl]urea] were, in that order, 55% and 80 nM.
The like results for `O=C(NCc1ccnc(OC(F)F)c1)Nc1cncc(Cl)n1` [Example 98, 1-(6-chloropyrazin-2-yl)-3-[[2-(difluoromethoxy)pyridin-4-yl]methyl]urea] were, in that order, 48% and 810 nM.
Take `O=C(NCc1ccnc(OC(F)F)c1)N[C@H]1C[C@](O)(C(F)(F)F)C1` [Example 100, 1-[[2-(difluoromethoxy)pyridin-4-yl]methyl]-3-[(1s,3s)-3-hydroxy-3-(trifluoromethyl)cyclobutyl]urea]: the Emax came out at 40% and the EC50 is 3660 nM.
The corresponding values for `O=C(NCc1ccnc(OC(F)F)c1)N[C@H]1CC[C@@H]2CCC[C@@H]21` [Example 103, 1-[(1S,3aS,6aS)-1,2,3,3a,4,5,6,6a-octahydropentalen-1-yl]-3-[[2-(difluoromethoxy)pyridin-4-yl]methyl]urea] are 71% and 30 nM.
As to `O=C(NCc1ccnc(OC(F)F)c1)N[C@H]1C[C@H]2CCC[C@H]2C1` [Example 105], the Emax amounted to 78% and the EC50 was 40 nM.
The like results for `O=C(NCc1ccnc(OC(F)F)c1)NC(C1CC1)C(F)(F)F` (stereo not shown) [Example 106, 1-(1-cyclopropyl-2,2,2-trifluoroethyl)-3-[[2-(difluoromethoxy)pyridin-4-yl]methyl]urea] were, in that order, 47% and 820 nM.
`O=C(NCc1ccnc(OC(F)F)c1)NC1CC(F)(F)C1` [Example 108, 1-(3,3-difluorocyclobutyl)-3-[[2-(difluoromethoxy)pyridin-4-yl]methyl]urea] gave an Emax of 51% and an EC50 of 2080 nM.
The corresponding values for `CC(C)(C)CCNC(=O)NCc1ccnc(OC(F)F)c1` [Example 109, 1-[[2-(difluoromethoxy)pyridin-4-yl]methyl]-3-(3,3-dimethylbutyl)urea] are 51% and 300 nM.
The corresponding values for `O=C(NCc1ccnc(OC(F)F)c1)NC1(CC(F)(F)F)CC1` [Example 110, 1-[[2-(difluoromethoxy)pyridin-4-yl]methyl]-3-[1-(2,2,2-trifluoroethyl)cyclopropyl]urea] are 40% and 1230 nM.
The like results for `O=C(NCc1ccnc(OC(F)F)c1)NC1CCCC1(F)F` (stereo not shown) [Example 113, 1-(2,2-difluorocyclopentyl)-3-[[2-(difluoromethoxy)pyridin-4-yl]methyl]urea] were, in that order, 77% and 3490 nM.
As to `O=C(NCc1ccnc(OC(F)F)c1)NN1CC2CCCC2C1` (stereo not shown) [Example 114, 1-(3,3a,4,5,6,6a-hexahydro-1H-cyclopenta[c]pyrrol-2-yl)-3-[[2-(difluoromethoxy)pyridin-4-yl]methyl]urea], the Emax turned out to be 68% and the EC50 was found to be 7430 nM.
The corresponding values for `O=C(NCc1ccnc(OC(F)F)c1)N[C@@H]1CCC(F)(F)C1` [Example 115, 1-[(1R)-3,3-difluorocyclopentyl]-3-[[2-(difluoromethoxy)pyridin-4-yl]methyl]urea] are 48% and 330 nM.
Turning to `O=C(NCc1ccnc(OC(F)F)c1)N[C@H]1CCC(F)(F)C1` [Example 116, 1-[(1S)-3,3-difluorocyclopentyl]-3-[[2-(difluoromethoxy)pyridin-4-yl]methyl]urea], the Emax worked out at 58% and a half-maximal response (EC50) required 320 nM.
The corresponding values for `O=C(NC(CCO)c1ccnc(OC(F)F)c1)N[C@H]1C[C@H](C(F)(F)F)C1` (stereo partly shown) [Example 117, 1-[1-[2-(difluoromethoxy)pyridin-4-yl]-3-hydroxypropyl]-3-[(1r,3r)-3-(trifluoromethyl)cyclobutyl]urea] are 94% and 1900 nM.
The corresponding values for `COC(CNC(=O)NCc1ccnc(OC(F)F)c1)C(F)(F)F` (stereo not shown) [Example 119, 1-[[2-(difluoromethoxy)pyridin-4-yl]methyl]-3-(3,3,3-trifluoro-2-methoxypropyl)urea] are 41% and 1600 nM.
The like results for `CC(F)(F)COc1cc(CNC(=O)N[C@H]2C[C@H](C(F)(F)F)C2)ccn1` [Example 121, 1-[[2-(2,2-difluoropropoxy)pyridin-4-yl]methyl]-3-[(1r,3r)-3-(trifluoromethyl)cyclobutyl]urea] were, in that order, 62% and 120 nM.
`CC(F)(F)COc1cc(CNC(=O)NC23CCC(F)(CC2)CC3)ccn1` [Example 122, 1-[[2-(2,2-difluoropropoxy)pyridin-4-yl]methyl]-3-(4-fluoro-1-bicyclo[2.2.2]octanyl)urea] came in with an Emax of 61% and an EC50 of 190 nM.
The like results for `[2H]C([2H])(NC(=O)NCc1ccnc(OC(F)F)c1)C1CCC1` [Example 125, 1-[cyclobutyl(dideuterio)methyl]-3-[[2-(difluoromethoxy)pyridin-4-yl]methyl]urea] were, in that order, 62% and 750 nM.
The corresponding values for `Cc1cccc(NC(=O)NCc2ccnc(OC(F)F)c2)c1` [Example 126, 1-[[2-(difluoromethoxy)pyridin-4-yl]methyl]-3-(3-methylphenyl)urea] are 50% and 650 nM.

What is called Emax is the maximal effect, on the per cent scale that the assay sets. A word on the EC50: it is the midpoint of the concentration-response curve. A higher EC50 goes with lower potency in that assay.
